In one data set the target is Cytochrome P450 2D6 (Homo sapiens, UniProt P10635). Description: Time dependent inhibition of CYP2D6 in human liver microsomes using dextromethorphan as substrate in presence of NADPH by LC-MS/MS analysis. The data set is classed as ADME. (Liver microsomes are a subcellular fraction often used to study metabolism.)
Data set [1] is described as follows: Toxicity in human at 0.1 to 25 mg, iv administered as single dose. The data set is classed as organism-based. Particulars: in vivo, dose 0.1-25 mg; call rule not given here.
The target in data set [2] is T1, Cytochrome P450 1A2 (Homo sapiens, UniProt P05177).
T1 sequence (P05177 whole entry): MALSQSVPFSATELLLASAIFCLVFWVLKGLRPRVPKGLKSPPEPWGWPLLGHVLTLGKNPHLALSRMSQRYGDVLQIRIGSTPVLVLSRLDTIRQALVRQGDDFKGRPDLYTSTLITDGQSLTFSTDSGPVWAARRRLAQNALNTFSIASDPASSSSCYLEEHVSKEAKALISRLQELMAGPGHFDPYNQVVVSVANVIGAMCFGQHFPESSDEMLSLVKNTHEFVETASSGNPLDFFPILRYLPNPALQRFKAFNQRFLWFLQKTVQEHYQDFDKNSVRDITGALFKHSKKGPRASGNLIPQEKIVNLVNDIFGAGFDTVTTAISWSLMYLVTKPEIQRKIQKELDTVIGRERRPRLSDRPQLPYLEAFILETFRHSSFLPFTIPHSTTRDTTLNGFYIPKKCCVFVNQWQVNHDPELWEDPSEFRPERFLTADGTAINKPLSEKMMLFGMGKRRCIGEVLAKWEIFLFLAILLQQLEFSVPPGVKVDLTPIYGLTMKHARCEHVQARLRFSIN
Description: Induction of CYP1A2 (unknown origin) assessed as effect on CYP1A2 mRNA expression. The data set is classed as ADME.

The target in data set [3] is T1, Cytochrome P450 1A2. Description: Inhibition of CYP1A2 in human liver microsomes using phenacetin as substrate incubated for 5 to 20 mins in presence of NADPH by LC-MS/MS analysis. The note with it: time 5-20 min; read-out: INH. The format is ADME.
Data set [4] can be described thus: Cmax in human at 16 mg, iv administered as single infusion for 30 to 60 mins. The data set is classed as ADME, organism-based. Details: route intravenous, dose 16 mg, time 30-60. Particulars: in vivo.
Data set [5] deals with T2, Nuclear receptor subfamily 1 group I member 2 (Homo sapiens, UniProt O75469).
T2 sequence (O75469 whole entry): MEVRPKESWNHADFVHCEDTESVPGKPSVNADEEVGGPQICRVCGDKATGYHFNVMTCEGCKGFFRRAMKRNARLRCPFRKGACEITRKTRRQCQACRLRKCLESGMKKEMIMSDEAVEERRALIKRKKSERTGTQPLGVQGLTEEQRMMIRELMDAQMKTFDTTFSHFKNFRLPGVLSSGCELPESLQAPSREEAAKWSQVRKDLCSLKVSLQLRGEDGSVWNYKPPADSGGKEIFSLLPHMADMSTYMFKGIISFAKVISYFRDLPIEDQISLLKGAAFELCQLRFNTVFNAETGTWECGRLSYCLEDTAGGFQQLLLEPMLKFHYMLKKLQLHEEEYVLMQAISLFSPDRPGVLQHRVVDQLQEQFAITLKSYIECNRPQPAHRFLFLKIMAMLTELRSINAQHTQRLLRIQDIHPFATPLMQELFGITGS
Description: Activation of PXR (unknown origin) by reporter gene assay. The data set is classed as ADME. A general note: A reporter such as luciferase makes a cellular process visible.

The next data set concerns the target Cytochrome P450 2C9 (Homo sapiens, UniProt P11712). Description: Time dependent inhibition of CYP2C9 in human liver microsomes using diclofenac as substrate in presence of NADPH by LC-MS/MS analysis. The format is ADME.
For another data set, the target named is Cytochrome P450 2C19 (Homo sapiens, UniProt P33261). Description: Inhibition of CYP2C19 in human liver microsomes using s-mephenytoin as substrate incubated for 5 to 20 mins in presence of NADPH by LC-MS/MS analysis. The note with it: time 5-20 min; read-out: INH. The data set is classed as ADME.
Data set [6] can be described thus: Genotoxicity in Salmonella typhimurium by Ames test. The format is toxicity. The note with it: salmonella enterica subsp. enterica serovar typhimurium.
A short description of data set [7]: Clearance in human at 16 mg, iv administered as single infusion for 30 to 60 mins. Particulars: in vivo, time 30-60 min. The data set is classed as ADME, organism-based.

Sequence of Cytochrome P450 2C9 (P11712 whole entry): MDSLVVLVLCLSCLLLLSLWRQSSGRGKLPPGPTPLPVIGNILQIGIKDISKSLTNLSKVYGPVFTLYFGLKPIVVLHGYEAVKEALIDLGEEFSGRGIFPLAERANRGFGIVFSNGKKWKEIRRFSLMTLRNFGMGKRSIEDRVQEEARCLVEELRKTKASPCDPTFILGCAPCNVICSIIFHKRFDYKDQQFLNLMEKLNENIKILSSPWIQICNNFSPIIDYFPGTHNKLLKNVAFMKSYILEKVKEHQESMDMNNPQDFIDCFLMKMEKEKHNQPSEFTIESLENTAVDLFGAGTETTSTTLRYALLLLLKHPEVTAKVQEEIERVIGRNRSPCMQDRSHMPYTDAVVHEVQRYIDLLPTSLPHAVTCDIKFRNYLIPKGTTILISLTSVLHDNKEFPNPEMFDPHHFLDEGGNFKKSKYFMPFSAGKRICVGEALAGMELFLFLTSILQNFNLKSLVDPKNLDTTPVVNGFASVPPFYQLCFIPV
Sequence of Cytochrome P450 2D6 (P10635 whole entry): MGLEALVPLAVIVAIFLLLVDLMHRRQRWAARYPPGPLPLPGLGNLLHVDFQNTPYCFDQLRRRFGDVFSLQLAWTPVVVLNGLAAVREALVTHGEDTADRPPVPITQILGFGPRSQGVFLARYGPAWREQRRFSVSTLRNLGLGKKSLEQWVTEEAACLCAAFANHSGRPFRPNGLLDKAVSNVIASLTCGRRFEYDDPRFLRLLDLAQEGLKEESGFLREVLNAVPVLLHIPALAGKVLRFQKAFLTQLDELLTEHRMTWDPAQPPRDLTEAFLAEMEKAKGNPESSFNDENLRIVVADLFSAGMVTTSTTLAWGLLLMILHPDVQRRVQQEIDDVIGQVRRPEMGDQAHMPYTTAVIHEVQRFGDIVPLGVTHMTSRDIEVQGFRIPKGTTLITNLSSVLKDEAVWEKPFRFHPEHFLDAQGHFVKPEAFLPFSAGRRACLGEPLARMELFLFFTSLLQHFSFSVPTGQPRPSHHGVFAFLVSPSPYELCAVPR
Sequence of Cytochrome P450 2C19 (P33261 whole entry): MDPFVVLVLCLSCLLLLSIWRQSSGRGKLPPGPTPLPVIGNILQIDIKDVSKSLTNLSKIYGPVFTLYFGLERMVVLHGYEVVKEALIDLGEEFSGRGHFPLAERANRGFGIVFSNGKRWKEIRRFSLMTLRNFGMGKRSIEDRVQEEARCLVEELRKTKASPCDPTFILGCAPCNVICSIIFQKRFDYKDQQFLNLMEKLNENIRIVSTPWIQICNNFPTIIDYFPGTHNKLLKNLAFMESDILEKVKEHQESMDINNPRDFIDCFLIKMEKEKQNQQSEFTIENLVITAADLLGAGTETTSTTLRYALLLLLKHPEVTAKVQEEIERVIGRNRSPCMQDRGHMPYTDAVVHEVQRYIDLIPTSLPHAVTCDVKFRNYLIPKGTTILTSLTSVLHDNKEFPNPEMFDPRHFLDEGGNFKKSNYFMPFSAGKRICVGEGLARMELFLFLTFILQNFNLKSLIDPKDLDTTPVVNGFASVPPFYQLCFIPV

What is called Cmax is the peak of the concentration-time curve. Broadly, the clearance is the rate of elimination divided by the concentration. As to `C[C@H](Nc1cc(Cl)nc2c1cnn2[C@@H]1O[C@H](COP(=O)(O)CP(=O)(O)O)[C@@H](O)[C@H]1O)c1ccccc1F`, the TDI result at Cytochrome P450 2D6 and at Cytochrome P450 2C9 was “Not Active” in each case. Also, the Activity entry is on record as “Non-Toxic” in data set [1], “Not Active” on Cytochrome P450 1A2 [2], “Not Active” in [5] and “Non-Toxic” in [6]. Further, the IC50 on Cytochrome P450 1A2 [3] and at Cytochrome P450 2C19 was above 100 µM each time. The compound further registered a Cmax in data set [4] of 3910 ng/mL. Moreover, the clearance in data set [7] is 1.12 mL/min.

The values above are taken from ChEMBL document CHEMBL4665688, “Discovery of AB680: A Potent and Selective Inhibitor of CD73” (J Med Chem, 2020).
